# Source: patent US20200268768A1, “CENICRIVIROC COMBINATION THERAPY FOR THE TREATMENT OF FIBROSIS” (Tobira Therapeutics, Inc., priority 2015, published 2020)
# Tested on: mouse UUO model of renal fibrosis
# Assay: Mouse unilateral ureter occlusion (UUO) model of renal fibrosis
# Assay type: in vivo, CD-1 mice
# Conditions: for Reduction of UUO-induced increase in composite Collagen Volume Fraction (CVF): ±SEM
# Procedure: Test animals were allocated to weight-matched treatment groups on the day prior to the surgical procedure (Day −1). Male CD-1 mice (N=51; age, 7-8 weeks) underwent either sham surgery or total ligation of the right ureter, i.e. UUO, via aseptic laparotomy (FIG. 5). […] Another group received the anti-transforming growth factor TGF-β1 antibody, compound 1D11 (positive control) at 3 mg/kg/day from Days −1 to 4, injected intraperitoneally once daily, and vehicle control from Days 0 to 5. […] On Day 5, animals were anaesthetised, blood and tissues were collected prior to sacrifice.
# Study endpoints included: a) body and kidney weights; b) fibrosis in obstructed kidney evaluated via histological quantitative image analysis of picrosirius red staining (ten images/depth/kidney obtained and assessed in a blinded fashion using light microscopy [at 200×] to enable sampling of 60-70% of the renal cortical area) and quantified by a composite Collagen Volume Fraction (CVF [% total area imaged]) score expressed as the average positive stain across three anatomically distinct (200-250 μM apart) tissue sections, or depths, from the obstructed kidney; c) hydroxyproline content of frozen renal cortical tissue biopsies as assessed by biochemical analyses; d) mRNA expression of profibrotic and inflammatory biomarkers (including MCP-1, Collagen 1a1, Collagen 3α1, TGF-β31, Fibronectin-1, α-smooth muscle actin (α-SMA) and connective tissue growth factor-1 (CTGF-1); assessed via Luminex® (Life Technologies™, Carlsbad, Calif., USA) assay with relative expression normalised to HPRT (hypoxanthine phosphoribosyltransferase).
# Data are expressed as mean±standard error of mean (SEM). Statistical analyses were performed using GraphPad Prism® (GraphPad Software, Inc., San Diego, Calif., USA). Treatment differences between sham-surgery+vehiclecontrol and UUO+vehicle-control groups, and between UUO+vehicle-control and UUO+compound-1D11 (positive control) groups, were analysed by unpaired t-Test. Treatment differences between UUO+vehicle-control and CVC-dose groups were analysed by one-way ANOVA (analysis of variance) with Dunnett's test (post-hoc).
# [1] = CVC 7 and 20 mg/kg/day, compound 1D11 3 mg/kg/day, versus UUO+vehicle-control
smiles,measurement,setting,value
"CCCCOCCOc1ccc(-c2ccc3c(c2)C=C(C(=O)Nc2ccc([S@@+]([O-])Cc4cncn4CCC)cc2)CCCN3CC(C)C)cc1 [CVC, (S)-8-[4-(2-Butoxyethoxy)phenyl]-1-isobutyl-N-(4-{[(1-propyl-1H-imidazol-5-yl)methyl]sulfinyl}phenyl)-1,2,3,4-tetrahydro-1-benzazocine-5-carboxamide]",Reduction of UUO-induced increase in composite Collagen Volume Fraction (CVF),"CVC 7 mg/kg/day oral, Day 5",28.6±8.8%
same,Reduction of UUO-induced increase in composite Collagen Volume Fraction (CVF),"CVC 20 mg/kg/day oral, Day 5, one outlier excluded",31.8±6.8%
same,Tolerability after UUO surgery,CVC 100 mg/kg/day group (N=9),terminated early due to moribundity
same,Effect on obstructed kidney hydroxyproline content,"CVC 7 and 20 mg/kg/day, Day 5",Neither dose of CVC tested affected UUO-induced increases in obstructed kidney hydroxyproline content
same,"Collagen 1a1, Collagen 3α1, TGF-β1 and Fibronectin-1 mRNA expression in obstructed kidney",[1],"these reductions, compared with the UUO+vehicle-control group, did not reach statistical significance"
same,"Obstructed kidney cortical MCP-1, α-SMA and CTGF-1 mRNA expression",[1],did not have significant effects
same,Effect on body weight relative to UUO+vehicle-control,"Day 5, CVC 7 mg/kg/day oral, compound 1D11 3 mg/kg/day i.p.",no effect on body weight
same,Decrease in body weight relative to UUO+vehicle-control,"Day 5, CVC 20 mg/kg/day oral",5%
same,Obstructed or contralateral kidney weight or kidney weight index versus UUO+vehicle-control,"Day 5, CVC 7 and 20 mg/kg/day, compound 1D11 3 mg/kg/day",No significant treatment effects
